Laboratory results: patent US20240327387A1, “TRIAZINE DERIVATIVES FOR THE TREATMENT OF TUMOURS AND NEURODEGENERATIVE DISORDERS” (UNIVERSITA' DEGLI STUDI DI MILANO, priority 2021, published 2024)

Tests used:
hPD1/hPD-L1 interaction = hPD1/hPD-L1 interaction (Homo sapiens (Human), UniProt Q9NZQ7); assay: HTRF assay of PD-1/PD-L1 interaction; format: binding
PD-L1 [1] = molecular target: T1, PD-L1 (Homo sapiens (Human), UniProt Q9NZQ7); assay: NMR binding assay (macromolecule-based 1D 1H NMR); settings: PD-L1 10 μM, protein:ligand 1:1 and 1:10
Target sequence in this assay (Q9NZQ7 18-134): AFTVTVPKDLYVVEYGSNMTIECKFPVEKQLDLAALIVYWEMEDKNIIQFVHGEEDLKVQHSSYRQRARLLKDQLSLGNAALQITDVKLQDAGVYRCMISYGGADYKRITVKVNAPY

PD-L1 [2] = molecular target: T1, PD-L1; assay: Differential scanning calorimetry (DSC) of PD-L1; format: binding; settings: PD-L1 32 μM, ligand 32 μM
Target sequence in this assay (Q9NZQ7 18-134): as above

PD-L1 [3] = molecular target: T1, PD-L1; settings: PD-L1 versus PD-1
Target sequence in this assay (Q9NZQ7 19-290): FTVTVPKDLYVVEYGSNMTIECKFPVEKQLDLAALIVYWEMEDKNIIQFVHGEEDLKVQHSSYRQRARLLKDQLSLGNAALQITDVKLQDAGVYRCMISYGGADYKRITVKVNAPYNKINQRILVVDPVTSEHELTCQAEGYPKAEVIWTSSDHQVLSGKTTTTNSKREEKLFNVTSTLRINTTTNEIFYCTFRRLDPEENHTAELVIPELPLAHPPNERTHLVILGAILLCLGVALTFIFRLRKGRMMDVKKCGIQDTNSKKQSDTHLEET

hPD1/hPD-L1 interaction, sequence (Q9NZQ7 19-238): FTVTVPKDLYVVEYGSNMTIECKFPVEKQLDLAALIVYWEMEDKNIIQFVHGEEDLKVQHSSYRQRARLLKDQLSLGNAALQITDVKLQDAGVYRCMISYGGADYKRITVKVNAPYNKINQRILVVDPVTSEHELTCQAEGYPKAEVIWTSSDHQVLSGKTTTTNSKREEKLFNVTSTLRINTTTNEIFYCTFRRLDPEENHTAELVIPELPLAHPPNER

IC50 (hPD1/hPD-L1 interaction; Table 2)	SMILES	also measured
> 10 µM	Cc1c(COc2ncnc(N[C@@H](CO)C(=O)O)n2)cccc1-c1ccccc1 [Compound 77]	–
> 10 µM	COC(=O)[C@H](CO)Nc1ncnc(NCc2cccc(-c3ccccc3)c2C)n1 [Compound 82]	–
> 10 µM	Cc1c(CNc2ncnc(NCCNS(C)(=O)=O)n2)cccc1-c1ccc2c(c1)OCCO2 [Compound 85]	–
> 10 µM	CC(=O)NCCNc1ncnc(NCc2cccc(-c3ccccc3)c2C)n1 [Compound 80]	–
> 10 µM	CC(=O)NCCNc1ncnc(NCc2cccc(-c3ccc4c(c3)OCCO4)c2C)n1 [Compound 84]	–
0.692 µM	COC(=O)[C@H](CO)Nc1ncnc(OCc2cccc(-c3ccccc3)c2C)n1 [Compound 76]	–
> 10 µM	Cc1c(CNc2ncnc(NCCNS(C)(=O)=O)n2)cccc1-c1ccccc1 [Compound 81]	–
–	COc1nc(OCc2cccc(-c3ccccc3)c2C)ccc1CNCCNC(C)=O [BMS202]	formation of the ligand-PD-L1 complex (1D 1H NMR signal changes) (PD-L1 [1]): decrease in the intensity of the free protein signals; change in the Tm of the protein (ΔTm) (PD-L1 [2]): 6.5 °C; Tm of PD-L1 in the presence of ligand (PD-L1 [2]; no ligand Tm 46.5 (±0.5)): 53.0 (±0.5) ° C.
–	CC(=O)NCCNc1ncnc(OCc2cccc(-c3ccccc3)c2C)n1 [Compound 4]	formation of the ligand-PD-L1 complex (1D 1H NMR signal changes) (PD-L1 [1]): formation of the compound 4-PD-L1 complex; IC50 (hPD1/hPD-L1 interaction; HTRF): 0.115 µM; IC50 (hPD1/hPD-L1 interaction; HTRF, Table 1): 0.115 ± 0.024 µM; specific binding (PD-L1 [3]): capable of specifically binding PD-L1 and not PD-1
> 10 µM	Cc1c(CNc2ncnc(N[C@@H](CO)C(=O)O)n2)cccc1-c1ccccc1 [Compound 83]	–
